Measured values taken from US10253041B2, “7-phenylethylamino-4H-pyrimido[4,5-d][1,3]oxazin-2-one compounds and their use as mutant IDH1 inhibitors” (Eli Lilly and Company, priority 2015, dated 2019).
Like-named read-outs stand apart in the source and are kept apart here.

Legend:
IDH1/R132H = target: T1, IDH1/R132H (Homo sapiens, UniProt O75874, R132H); test: Biochemical assay for IDH1 R132H mutant enzyme (2HG by RapidFire MS); conditions: mean ± standard deviation of the mean; 90 minutes reaction
T1 construct: His-tag (N); made in house; host or cells: E. coli
T1 sequence (O75874 whole entry R132H): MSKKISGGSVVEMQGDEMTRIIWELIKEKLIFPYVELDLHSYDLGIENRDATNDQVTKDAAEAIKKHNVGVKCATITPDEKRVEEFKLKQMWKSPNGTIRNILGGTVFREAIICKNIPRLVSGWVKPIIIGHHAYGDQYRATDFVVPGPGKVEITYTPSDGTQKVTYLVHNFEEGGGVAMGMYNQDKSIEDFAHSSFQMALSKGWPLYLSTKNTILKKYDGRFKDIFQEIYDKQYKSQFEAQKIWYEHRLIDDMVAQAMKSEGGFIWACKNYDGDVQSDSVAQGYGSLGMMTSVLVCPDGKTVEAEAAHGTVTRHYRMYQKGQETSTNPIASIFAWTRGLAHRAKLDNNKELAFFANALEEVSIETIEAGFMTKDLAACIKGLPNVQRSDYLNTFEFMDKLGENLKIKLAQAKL
Description: IDH1-R132H, IDH1-R132C, IDH2-R172K and IDH2-R140Q mutant enzymes catalyze the conversion of αKG to 2HG. 2HG is analyzed using in-line solid phase extraction and mass spectrometry. This analysis is carried out in a RapidFire® instrument coupled to a 6460 triple quadrupole mass spectrometer (G6460A Agilent).
IDH1 mutant (R132H and R132C) and IDH2 mutant (R140Q and R172K) proteins containing N-terminal His-tag are expressed in E. coli and purified using nickel affinity chromatography. The enzyme assays are carried out in V-bottom 96 well polypropylene plates containing 100 mM Tris-HCl buffer, 1 mM DTT, 0.005% TRITON™ X-100, 120 mM NaCl. For IDH1 R132H, α-ketoglutarate, NADPH and MnCl2 are included at final concentrations of 300 μM, 2.5 μM and 300 μM respectively. For IDH1 R132C, α-ketoglutarate, NADPH and MnCl2 are included at final concentrations of 100 μM, 10 μM and 100 μM respectively. For IDH2 R172K, α-ketoglutarate, NADPH and MnCl2 are included at final concentrations of 150 μM, 10 μM and 150 μM respectively. For IDH2 R140Q, α-ketoglutarate, NADPH and MnCl2 are included at final concentrations of 3000 μM, 10 μM and 100 μM respectively. Final pH=7.0. Test compound dissolved in DMSO stock is diluted in the reaction mix at a final DMSO concentration of 4%. Compounds are tested in dose-response format. The assay is started by addition of enzyme. Enzymes are used at the following final concentrations: IDH1 R132H, 2 nM; IDH1 R132C, 0.5 nM; IDH2 R172K, 1.2 nM; IDH2 R140Q, 1.2 nM. After 90 minutes the reaction is quenched by adding ACN (50:50) containing 3-hydroxy-1,5-pentanedioic-2,2,3,4,4-d5 acid (5d5-3HG) as an internal standard for mass spectrometry analysis and quantitation of reaction product. 2-Hydroxyglutarate (2HG) in quenched samples is separated using strong anionic exchange column chromatography (Phenomenex Strata-X-A SecurityGuard) and analyzed by mass spectrometry in a 6460 triple quadrupole mass spectrometer (G6460A Agilent). The 2HG signal detected is transformed into an analyte concentration using a calibration curve generated using known 2HG concentrations. […] IC50 values are obtained from the individual % inhibition values at different compound concentrations using a 4-parameter equation. These calculations are carried out using Activity Base (IDBS) or Screener (Genedata) data analysis programs.

[1] = test system: IDH1 mutant R132C in fibrosarcoma cell line HT1080; test: HT1080 cell assay (intracellular 2HG and αKG); format: cell-based; conditions: Homo sapiens; for IC50: 1 hour + 18 hours incubation; for HT1080 (R132C, 2-hydroxyglutarate) IC50: read-out: HT1080 (R132C, 2-hydroxyglutarate) IC50 (μM), intracellular 2HG, 1 hour + 18 hours incubation
Description: To test the cellular inhibition of IDH1 mutant R132C, the fibrosarcoma cell line HT1080 (purchased from ATCC) is used. For testing cell-based inhibition of the R132H mutation, the U87MG glioma cell line (ATCC) was stably transfected with a DNA construct expressing the R132H mutant enzyme.
Fifteen thousand cells are plated in poly-D-lys coated 96 well plates (15,000 cells/well) 18-24 hours prior to treatment with compounds. Four hours prior to compound treatment, cells are glutamine-starved by removing normal media and replacing with glutamine-free media. Following starvation, cells are then treated with different concentrations of test compounds (20 μM to 1 nM) dissolved in glutamine free media containing DMSO at a final concentration of 0.2%. The initial compound incubation is for 1 hour at 37° C./5% CO2. After 1 hour, glutamine is added to a final 2 mM concentration and the treated cells are then incubated for a further 18 hours at 37° C./5% CO2. Following the 18 hour incubation, intracellular 2HG and αKG are analyzed in cell lysates. Lysates are prepared following removal of media and addition of buffer containing 25 mM Tris-HCl pH 7.5, 150 mM NaCl, 1 mM EDTA, 1 mM EGTA/1% Triton-X 100 to the cells. An aliquot of lysate is added to a mix of d6-αKG and d5-3HG as internal standards and the mixture is treated with O-benzylhydroxylamine in the presence of N-(3-dimethylaminopropyl)-N′-ethylcarbodiimide hydrochloride (EDC) and pyridine. Analyte derivatives are then extracted with EtOAc, dried, and then reconstituted with 50% MeOH in H2O. Samples prepared as described are injected into the HPLC to separate 2HG and αKG derivatives (and corresponding internal standards) using a reverse phase chromatography in a C18 column. Analysis of the samples is carried out using a 6460 triple quadrupole mass spectrometer (G6460A Agilent). The 2HG and αKG signals detected are transformed into analyte concentration using the ratio of αKG/d6-αKG and the ratio of 2HG/d5-3HG that is extrapolated within a calibration curve. Percent inhibition for each individual sample is obtained after normalizing calculated 2HG or aKG concentration to maximum and minimum references obtained in the presence and in the absence of glutamine during cell treatment with compounds. IC50 values are obtained from individual % inhibition using a sigmoidal dose-response 4-parameter equation. These calculations are carried out automatically using Activity Base (IDBS) or Screener (Genedata) data analysis programs.

[2] = HT-1080, 19 h, intracellular 2HG, read-out: HT1080 (R132C, 2-hydroxyglutarate) IC50
[3] = HT-1080, intracellular αKG, read-out: HT1080 (R132C, αKG) IC50

## C=CC(=O)N1CC(N(C)Cc2ccc([C@H](C)Nc3ncc4c(n3)N(CC)C(=O)OC4)cc2)C1 [Example 10, 1-Ethyl-7-[[(1S)-1-[4-[[methyl-(1-prop-2-enoylazetidin-3-yl)amino]methyl]-phenyl]ethyl]amino]-4H-pyrimido[4,5-d][1,3]oxazin-2-one]
IDH1/R132H
  IC50: 260 ± 35 nM
[1]; [2]
  IC50: 97.8 ± 43.1 nM
[1]; [3]
  IC50: > 20000 nM

## C=CC(=O)N1CCN(Cc2ccc([C@H](C)Nc3ncc4c(n3)N([C@H](C)CO)C(=O)OC4)cc2)CC1 [Example 11, 1-[(1R)-2-Hydroxy-1-methyl-ethyl]-7-[[(1S)-1-[4-[(4-prop-2-enoylpiperazin-1-yl)methyl]phenyl]ethyl]amino]-4H-pyrimido[4,5-d][1,3]oxazin-2-one]
IDH1/R132H
  IC50: 80.2 ± 51.9 nM
[1]; HT-1080, 19 h
  HT1080 (R132C, 2-hydroxyglutarate) IC50: 0.0321 ± 0.0108 µM
[1]; [3]
  IC50: > 20000 nM

## C=CC(=O)N1CCC(N(C)Cc2ccc([C@H](C)Nc3ncc4c(n3)N(CC)C(=O)OC4)cc2)CC1 [Example 12, 1-Ethyl-7-[[(1S)-1-[4-[[methyl-(1-prop-2-enoyl-4-piperidyl)amino]-methyl]phenyl]ethyl]amino]-4H-pyrimido[4,5-d][1,3]oxazin-2-one]
IDH1/R132H
  IC50: 515 ± 86 nM
[1]; [2]
  IC50: 120 ± 20 nM
[1]; [3]
  IC50: > 20000 nM

## C=CC(=O)N1CC(OCc2ccc([C@H](C)Nc3ncc4c(n3)N(CC(C)C)C(=O)OC4)cc2)C1 [Example 13, 1-Isobutyl-7-[[(1S)-1-[4-[(1-prop-2-enoylazetidin-3-yl)oxymethyl]phenyl]ethyl]amino]-4H-pyrimido[4,5-d][1,3]oxazin-2-one]
IDH1/R132H
  IC50: 77.7 ± 19.6 nM
[1]; [2]
  IC50: 128 ± 9 nM
[1]; [3]
  IC50: > 20000 nM

## C=CC(=O)N1CC2(CN(Cc3ccc([C@H](C)Nc4ncc5c(n4)N(CC)C(=O)OC5)cc3)C2)C1 [Example 14, 1-Ethyl-7-[[(1S)-1-[4-[(2-prop-2-enoyl-2,6-diazaspiro[3.3]heptan-6-yl)methyl]phenyl]ethyl]amino]-4H-pyrimido[4,5-d][1,3]oxazin-2-one]
IDH1/R132H
  IC50: 81.9 ± 54.1 nM
[1]; [2]
  IC50: 89.8 ± 55.2 nM
[1]; [3]
  IC50: > 20000 nM

## C=CC(=O)N1CC2(CN(Cc3ccc([C@H](C)Nc4ncc5c(n4)N(C(C)C)C(=O)OC5)cc3)C2)C1 [Example 15, 1-Isopropyl-7-[[(1S)-1-[4-[(2-prop-2-enoyl-2,6-diazaspiro[3.3]heptan-6-yl)methyl]phenyl]ethyl]amino]-4H-pyrimido[4,5-d][1,3]oxazin-2-one]
IDH1/R132H
  IC50: 128 ± 9 nM
[1]; HT-1080, 19 h
  HT1080 (R132C, 2-hydroxyglutarate) IC50: 0.0278 ± 0.00623 µM
[1]; [3]
  IC50: > 20000 nM

## C=CC(=O)N1CCN(Cc2ccc([C@H](C)Nc3ncc4c(n3)N(CC)C(=O)OC4)cc2F)CC1 [Example 16, 1-Ethyl-7-[[(1S)-1-[3-fluoro-4-[(4-prop-2-enoylpiperazin-1-yl)methyl]phenyl]ethyl]amino]-4H-pyrimido[4,5-d][1,3]oxazin-2-one]
IDH1/R132H
  IC50: 116 ± 15 nM
[1]; [2]
  IC50: 34.9 ± 17.1 nM
[1]; [3]
  IC50: > 20000 nM

## C=CC(=O)N1CC(COc2ccc([C@H](C)Nc3ncc4c(n3)N(CC)C(=O)OC4)cc2)C1 [Example 17, 1-Ethyl-7-[[(1S)-1-[4-[(1-prop-2-enoylazetidin-3-yl)methoxy]phenyl]ethyl]amino]-4H-pyrimido[4,5-d][1,3]oxazin-2-one]
IDH1/R132H
  IC50: 114 ± 38 nM
[1]; [2]
  IC50: 99 ± 35.1 nM
[1]; [3]
  IC50: > 20000 nM

## C=CC(=O)N1CCN(Cc2ccc([C@H](C)Nc3ncc4c(n3)N(C)C(=O)OC4)cc2)CC1 [Example 19, 1-Methyl-7-[[(1S)-1-[4-[(4-prop-2-enoylpiperazin-1-yl)methyl]phenyl]ethyl]amino]-4H-pyrimido[4,5-d][1,3]oxazin-2-one]
IDH1/R132H
  IC50: 776 ± 210 nM
[1]; [3]
  IC50: > 20000 nM

## C=CC(=O)N1CCN(Cc2ccc([C@H](C)Nc3ncc4c(n3)N(CC(F)F)C(=O)OC4)cc2)CC1 [Example 20, 1-(2,2-difluoroethyl)-7-[[(1S)-1-[4-[(4-prop-2-enoylpiperazin-1-yl)methyl]phenyl]ethyl]amino]-4H-pyrimido[4,5-d][1,3]oxazin-2-one]
IDH1/R132H
  IC50: 180 ± 33 nM
[1]; [2]
  IC50: 95.5 ± 24.9 nM
[1]; [3]
  IC50: > 20000 nM

## C=CC(=O)N1CCN(Cc2ccc([C@H](C)Nc3ncc4c(n3)N(CCF)C(=O)OC4)cc2)CC1 [Example 21, 1-(2-fluoroethyl)-7-[[(1S)-1-[4-[(4-prop-2-enoylpiperazin-1-yl)methyl]phenyl]ethyl]amino]-4H-pyrimido[4,5-d][1,3]oxazin-2-one]
IDH1/R132H
  IC50: 323 ± 76 nM
[1]; [2]
  IC50: 408 nM
[1]; [3]
  IC50: > 20000 nM
